According to PMC6935685 (Pharmacology Research & Perspectives, 2019):
Several values for one entry are separate records, joined by “and”; a condition that tells them apart may be missing. Equal entries are not always repeated. Where two headings read alike, the source gives them in different places.

Assays:
human MT1 (hMT1) [1] = biological target: T1, human MT1 (hMT1) (Homo sapiens, UniProt P48039); assay: 2-[125I]-iodomelatonin competition binding, CHO-K1 membranes
human MT2 (hMT2) [2] = biological target: T2, human MT2 (hMT2) (Homo sapiens, UniProt P49286); assay: as above
T2 sequence (P49286 1-362): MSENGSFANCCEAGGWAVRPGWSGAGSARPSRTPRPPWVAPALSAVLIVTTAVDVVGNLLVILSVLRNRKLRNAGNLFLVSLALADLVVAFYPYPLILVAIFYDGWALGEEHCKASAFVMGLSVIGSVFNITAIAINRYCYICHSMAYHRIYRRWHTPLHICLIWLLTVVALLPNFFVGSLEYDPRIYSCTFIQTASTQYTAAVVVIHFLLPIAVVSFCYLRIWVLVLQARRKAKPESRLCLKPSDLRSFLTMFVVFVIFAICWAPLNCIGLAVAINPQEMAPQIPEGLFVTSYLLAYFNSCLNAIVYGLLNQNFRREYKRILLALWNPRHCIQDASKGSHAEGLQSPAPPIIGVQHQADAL

MT1 [3] = biological target: T3, MT1 (Homo sapiens, UniProt P48039); assay: β-arrestin recruitment, PathHunter CHO-K1 cells; type: cell-based
MT2 [4] = biological target: T4, MT2 (Homo sapiens, UniProt P49286); assay: β-arrestin recruitment, PathHunter CHO-K1 cells; type: cell-based
T4 sequence (P49286 1-362): T2 sequence (P49286 1-362)

MT1 [5] = biological target: T3, MT1; assay: Receptor internalization, DLD-1 cells; type: cell-based
MT2 [6] = biological target: T4, MT2; assay: Receptor internalization, U2O-S cells; type: cell-based; details: for receptor internalization: MT2
MT1 [7] = biological target: T3, MT1; assay: Overall functionality from the signaling pathway panel
MT2 [8] = biological target: T4, MT2; assay: as above
MT1 [9] = biological target: T3, MT1; assay: Cellular dielectric spectroscopy; type: cell-based; details: MT1
MT2 [10] = biological target: T4, MT2; assay: HTRF cAMP assay, agonist mode cAMP; type: cell-based; details: for Emax, cAMP (+): hMT2, inhibition of cAMP production, normalization vs melatonin
MT2 [11] = biological target: T4, MT2; assay: HTRF cAMP assay, antagonist mode cAMP; type: cell-based
MT2 [12] = biological target: T4, MT2; assay: Cellular dielectric spectroscopy; type: cell-based; details: MT2
human MT2 (hMT2) [13] = biological target: T2, human MT2 (hMT2); assay: [35S]-GTPγS binding, agonist mode GTPγS; type: biochemical
human MT1 (hMT1) [14] = biological target: T1, human MT1 (hMT1); assay: [35S]-GTPγS binding, antagonist mode GTPγS; type: biochemical
human MT2 (hMT2) [15] = biological target: T2, human MT2 (hMT2); assay: [35S]-GTPγS binding, antagonist mode GTPγS; type: biochemical
MT1 [16] = biological target: T3, MT1; assay: HTRF cAMP assay, agonist mode cAMP; type: cell-based; details: inhibition of cAMP production, normalization vs melatonin
human MT1 (hMT1) [17] = biological target: T1, human MT1 (hMT1); assay: [35S]-GTPγS binding, agonist mode GTPγS; type: biochemical
[18] = MT1 Affinity (pKi), against 2-[125I]iodomelatonin

T3 sequence (P48039 whole entry): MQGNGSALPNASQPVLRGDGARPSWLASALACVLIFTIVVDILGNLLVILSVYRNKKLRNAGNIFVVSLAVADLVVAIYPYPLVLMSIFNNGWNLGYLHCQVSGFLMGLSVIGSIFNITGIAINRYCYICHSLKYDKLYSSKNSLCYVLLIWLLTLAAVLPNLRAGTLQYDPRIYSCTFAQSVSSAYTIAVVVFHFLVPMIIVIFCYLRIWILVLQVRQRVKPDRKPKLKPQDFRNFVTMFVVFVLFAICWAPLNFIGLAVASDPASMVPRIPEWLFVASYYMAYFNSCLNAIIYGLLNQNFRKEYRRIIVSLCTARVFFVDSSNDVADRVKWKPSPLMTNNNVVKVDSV
T1 sequence (P48039 whole entry): as above

| Molecule | receptor internalization (MT2 [6]) | MT1 Our data (functionality) (MT1 [7]) | Ki (human MT1 (hMT1) [1]; [18]) [nM] | Ki (human MT2 (hMT2) [2]) [nM] | MT2 Our data (functionality) (MT2 [8]) | other results |
| --- | --- | --- | --- | --- | --- | --- |
| methoxyverapamil [D600, reference compound] | did not induce | antago |  |  |  | MT1 Affinity (pKi) (human MT1 (hMT1) [1]; against 2-[125I]iodomelatonin): 7 and 7.04; MT2 Affinity (pKi) (human MT2 (hMT2) [2]; against 2-[125I]iodomelatonin): <6; β-arrestin recruitment (MT1 [3]): did not induce; β-arrestin recruitment (MT2 [4]): did not induce; receptor internalization (MT1 [5]): did not induce |
| COCC(CNC(C)=O)c1cccc2ccc(OC)cc12 (centres unmarked) [S73893, N‐[3‐methoxy‐2‐(7methoxy‐ 1‐naphthyl)propyl]acetamide] |  | partial ago | 4.37 | 7.76 |  |  |
| COc1ccc2[nH]cc(CCNC(=O)CI)c2c1 [SD6, N‐[2‐(5‐methoxy‐1H‐indol‐3‐yl)ethyl] iodoacetamide] |  | agonists and ago |  |  | agonists and ago |  |
| COc1cc2c(CCNC(C)=O)c(I)[nH]c2cc1[N+](=O)[O-] [S27128, N‐[2‐(2‐iodo‐5‐methoxy‐6‐nitro‐1H‐indol‐3‐yl)ethyl]acetamide] | exhibited subsequent internalization | agonists and ago | 1.2 |  | agonists and ago | receptor internalization (MT1 [5]): exhibited subsequent internalization |
| COc1ccc2[nH]cc(CCNC(C)=O)c2c1I [SD1882, N‐[2‐(4‐iodo‐5‐methoxy‐1H‐indol‐3‐yl)ethyl] acetamide] |  | partial ago | 17.4 | 10.2 | ago | concentration of maximal effect (CellKey) (MT1 [9]): ~100 nmol/L |
| CCc1ccc2scc(CCNC(C)=O)c2c1 [S22153, N‐[2‐(5‐ethylbenzothiophen‐3‐yl)ethyl]acetamide] |  | partial ago | 9.77 | 7.94 | ago |  |
| CC(=O)NCCc1c(Cc2ccccc2)[nH]c2ccccc12 [Luzindole, N‐acetyl‐2‐benzyltryptamine, reference compound] | induces the internalization | antago | 257 |  | partial ago | Emax, cAMP (+) (MT2 [10]): 70%; Emax (MT2 [11]; read-out: Emax, cAMP (−)): 55%; β-arrestin recruitment (MT2 [4]): does not recruit; EC50 (MT2 [6]): ~10 nM |
| COc1ccc2c(c1)C(CNC(N)=O)Cc1ccccc1C2 (centres unmarked) [S77840, 1‐[(8‐methoxy‐10,11‐dihydro‐5H‐dibenzo[a,d]‐[7]annulen‐10‐yl)methyl]urea] | lack of capacity to provoke internalization |  |  |  |  | receptor internalization (MT1 [5]): lack of capacity to provoke internalization; cell shape shift, CellKey (MT2 [12]): failed to elicit any significant shift in shape |
| COc1cc2c(CCNC(C)=O)c[nH]c2cc1I [SD1881, N‐[2‐(6‐iodo‐5‐methoxy‐1H‐indol‐3‐yl)ethyl]acetamide] |  | agonists and ago | 1.45 | 2.45 | agonists and ago |  |
| O=C(NCCc1cccc2ccccc12)C1CCC1 [S20928, (N‐[2‐(1‐naphthyl)ethyl]cyclobutanecarboxamide)] | does not induce internalization |  | 170 |  |  | induction of GTPγS binding (human MT2 (hMT2) [13]): induces the binding of GTPγS; inhibition of melatonin-induced GTPγS binding (human MT1 (hMT1) [14]): fully inhibits; inhibition of melatonin-induced GTPγS binding (human MT2 (hMT2) [15]): slightly inhibits; Emax, cAMP (+) (MT1 [16]): less than 25%; Emax, cAMP (+) (MT2 [10]): 50%; β-arrestin recruitment (MT1 [3]): capacity to recruit; receptor internalization (MT1 [5]): does not induce internalization; cell shape shift, CellKey (MT1 [9]): failed to elicit any significant shift in shape; concentration of maximal effect (CellKey) (MT2 [12]): ~100 nmol/L |
| COc1cc(I)c2[nH]cc(CCNC(C)=O)c2c1 [SD1918, N‐[2‐(7‐iodo‐5‐methoxy‐1H‐indol‐3‐yl)ethyl]acetamide] |  | partial ago | 45.7 | 47.9 | ago |  |
| COc1ccc2cccc(C(CO)CNC(=O)CF)c2c1 (centres unmarked) [S75436, 2‐fluoro‐N‐[3‐hydroxy‐2‐(7‐methoxy‐1‐naphthyl)propyl]acetamide] |  | agonists and ago |  | 1.12 | agonists and ago | Ki (human MT1 (hMT1) [1]): 9.12 nM |
| COc1ccc2cccc(CCNC(C)=O)c2c1 [Agomelatine, N‐[2‐(7‐methoxynaphthalen‐1‐yl)ethyl]acetamide, reference compound] |  | ago |  |  | ago | MT1 Our data (functionality) (MT1 [7]; listed as S20098): agonists; MT2 Our data (functionality) (MT2 [8]; listed as S20098): agonists |
| COc1ccc2ncn(CCNC(C)=O)c2c1 [S21278, N‐[2‐(6‐methoxy‐benzimidazol‐1‐yl)ethyl]acetamide] | not enough to elicit internalization | agonists | 603 | 603 | agonists and ago | β-arrestin recruitment (MT1 [3]): complete recruitment |
| CCC(=O)NC1Cc2ccccc2C(c2ccccc2)C1 (centres unmarked) [4P‐PDOT, 4‐phenyl‐2‐propionamidotetraline, reference compound] |  | partial ago | 141 | 1.07 | partial ago | Ki (human MT1 (hMT1) [1]; affinity for MT1, order of magnitude given in text): ~100 nM; induction of GTPγS binding (human MT1 (hMT1) [17]): does not induce GTPγS binding; Emax, cAMP (+) (MT2 [10]): ~90% and 100%; EC50 (MT2 [10]; pEC50, cAMP production inhibition, MT2, text): 2 nM; antagonism in cAMP assay (MT2 [11]; MT2): completely inactive |
| COc1ccc2[nH]cc(CCNC(C)=O)c2c1 [Melatonin, N‐acetyl‐5‐methoxytryptamine, reference compound] |  | ago |  |  |  |  |
